Laboratory results as given in US5871779A, “Treatment of arthropathies with vanadate compounds or analogues thereof” (Mount Sinai Hospital Corporation, priority 1996, dated 1999).

How the values were obtained:
fos = fos / c-fos mRNA expression in chondrocytes (Northern blot); type: cell-based, bovine; conditions: stimulus alone; H2 O2 30, 60 and 90 minutes; IL-1, PMA or AA (3 μM) 1 hour
Method: The cytokine interleukin 1 (IL 1) has been used to identify the intermediate second messengers which regulate the expression of fos and jun.
In order to elucidate this possibility, the effect of DPI on fos and jun mRNA levels induced by IL 1 was investigated. RNA from chondrocytes treated with IL 1 in the presence and absence of DPI were analyzed by Northern blot analysis using either fos or collagenase cDNA probes.
Since superoxides are rapidly converted to hydrogen peroxide in the cell by superoxide dismutase, whether hydrogen peroxide could mimic the effect of IL 1 in the induction of fos expression was investigated. RNA was extracted from chondrocytes (Kandel et al. supra) treated with H2 O2 for 30, 60 and 90 minutes and examined by Northern blot analysis using a fos cDNA probe.
Bovine articular chondrocytes were isolated and plated as previously described (Kandel R. A. et al. Biochim. Biophys. Acta. 1053, 130-134, 1990). […] The amount of ^3 H-AA liberated into the supernatant was determined. To measure PGE2 production, chondrocytes were incubated for 6 hours in Ham's F12 medium, either alone or with IL 1 or PMA. […] In order to examine the expression of c-fos and c-jun, chondrocytes were incubated for 1 hour in the presence of IL-1, PMA or AA (3 μM). Chondrocytes were washed in PBS and the total RNA extracted as previously described (Cruz. et al, 1991, Biochem. J. 277, 327-330). RNA samples were run on formaldehyde agarose gels and transferred to nylon membrane for northern analysis using cDNA probes for c-fos and c-jun.
The RNA was extracted and examined by Northern blot analysis using cDNA probes for c-fos and collagenase.

cells = experiment: cell toxicity of orthovanadate and H2 O2; type: cell-based; conditions: 1 mM H2 O2, 24 hours
Method: Orthovanadate was thought in view of the investigations described in Examples 1-3, to react with H2 O2 to form hydroxyl radicals which are extremely toxic. If the orthovanadate induced formation of hydroxyl radicals is responsible for cell toxicity, then adding exogenous H2 O2 should enhance the effects of orthovanadate. Accordingly, cells were incubated in media alone or containing 1 mM H2 O2 or 10 μM orthovanadate or both for 24 hours. The cells were harvested and cell viability determined.

MDAY-D2 cells = experiment: viability of MDAY-D2 cells; type: cell-based, mouse; conditions: 0-50 μM, 48 hours, three forms compared
Method: Fos and jun activity are also required for cellular proliferation in many tumor cell lines. Accordingly, the effect of orthovanadate on adherent cells and cell suspensions were examined. MDAY-D2 (a mouse lymphoid cell line grown in suspension) and HTB14 cells (an adherent human primary astrocytoma cell line) were incubated in media containing 0-50 μM orthovanadate for 48 hours. The cells were harvested and the number of viable cells determined.
Three different forms of vanadyl compounds were examined for their effect on viability of cancer cell lines. MDAY-D2 cells were incubated in media containing 0-50 μM orthovanadate, vanadyl sulphate, or vanadyl hydroperoxide for 48 hours. The cells were harvested and the number of viable cells determined. […] Although there were slight differences in sensitivity, the overall cell death was similar.

MDAY-D2 tumor = MDAY-D2 tumor growth in vivo, orthovanadate, vanadyl sulphate, vanadyl hydroperoxide (Example 6B); set-up: species or system mice
Excerpt: (§1) In order to examine the ability of vanadyl compounds to reduce tumor formation, growth and metastases, a specific animal model which allows investigation of all of these processes in the same animal was chosen. This model involves the injection of a metastatic haematopoietic cell line, MDAY-D2, into mice subcutaneously. These cells form a tumor at the site of injection and its size can be easily determined. In addition, these cells metastasize to the liver and metastases can be detected histologically after day 17 to 19. This model provides a very sensitive and reproducible approach to investigate the effect of vanadyl compounds on tumor growth and metastases.
In a separate experiment using the same animal model, the effect of orthovanadate, vanadyl sulphate and vanadyl hydroperoxide administration on tumor growth in vivo was examined. On Day 1, 20 mice were injected with 2×10^5 MDAY-D2 cell subcutaneously. The mice were divided into four groups of five mice. At day 5, the animals were injected subcutaneously with 50 μl of water alone or containing 10 mg/ml of orthovanadate, 10 mg/ml of vanadyl sulphate, or 10 mg/ml of vanadyl hydroperoxide. This treatment was continued daily for 16 days. At day 21, the mice were sacrificed and the tumors dissected and weighed.

[1] = system: metastases of MDAY-D2 cells; experiment: liver metastases of MDAY-D2 cells (histology); type: in vivo, mice; conditions: 500 μg/day; preliminary results
Excerpt: as §1
The metastatic liver was obtained from an animal 24 days following the administration MDAY-D2 cells. The nodules are quite numerous and large.
Livers were removed from animals treated as described above and prepared for histological examination. FIG. 16 compares liver sections from untreated (C), orthovanadate (VO)(500 μg/day) and vanadyl sulphate (VS)(500 μg/day) treated animals. Nodules are identified with an arrow.

P388 (WT) = experiment: MTT cytotoxicity assay, P388 (WT); type: cell-based, murine; conditions: P388 (WT), 72 hours; read-out: IC50 Value
Method: (§2) The relative cytotoxicity of various compounds on tumor cell lines was investigated as follows. Cytotoxicity was measured by the MTT microculture tetrazolium colorimetric assay for all cell lines. The relative cytotoxicity of Na3 VO4 and VOSO4 was investigated using the following tumor cell lines: P388(WT) murine leukemia, P388 (ADR) murine leukemia, Lewis murine lung, MCF7 (WT) human breast, […] human lung, K562 human erythroleukemia, A431 human epidermal, LS180 human colon and SK-OV-3 human ovarian. The relative cytotoxicity of doxorubicin, Na3 VO4 and VOSO4 was investigated using the following tumor cell lines: P388(WT) murine leukemia, P388 (ADR) murine leukemia, MCF7(WT) human breast and MCF7 (ADR) human breast. The relative cytotoxicity of BMOV, BEOV and naglivan was investigated using the following tumor cell lines: P388(WT) murine leukemia, P388 (ADR) murine leukemia, Lewis murine lung, H460 human lung, K562 human erythroleukemia, and SK-OV-3 human ovarian.
(§3) The cells were plated (number of cells/well was different from cell line to cell depending on the dividing rate) in a 96-well microculture plate 24 hours prior to the delivery of the vanadium compounds. Serial concentrations of solutions of the test compounds (0.05-100 μM) were delivered to the corresponding wells. A blank column (without cells) and a control column (with cells without vanadium) were left. The cells were incubated for 72 hours continuously. An MTT solution was added to each well after this incubation period and the cells were incubated for 4 more hours for the completion of the dyeing process. The medium was removed find DMSO was added to each well. The absorbance of each well was read with a Titertek Multiskan (310C) spectrophotometer at 570 nm. The percentage of the absorbance of each vanadium concentration relative to the control calculated and the value of the 50% growth inhibition concentration (IC50) was obtained from the % control versus concentration plot. Each assay was repeated three times and the reported IC50 values were the mean of these three runs.

P388 (ADR) = experiment: MTT cytotoxicity assay, P388 (ADR); type: cell-based, murine; conditions: P388 (ADR), 72 hours; read-out: IC50 Value
Method: as §2, §3

Lewis lung = experiment: MTT cytotoxicity assay, Lewis lung; type: cell-based, murine; conditions: 72 hours
Method: as §2, §3

MCF7 (WT) = experiment: MTT cytotoxicity assay, MCF7 (WT); type: cell-based, human; conditions: MCF7 (WT), 72 hours; read-out: IC50 Value
Method: as §2, §3

MCF7 (ADR) = experiment: MTT cytotoxicity assay, MCF7 (ADR); type: cell-based, human; conditions: MCF7 (ADR), 72 hours; read-out: IC50 Value
Method: as §2, §3

H460 = experiment: MTT cytotoxicity assay, H460; type: cell-based, human; conditions: H460, 72 hours
Method: as §2, §3

K562 = experiment: MTT cytotoxicity assay, K562; type: cell-based, human; conditions: K562, 72 hours
Method: as §2
as §3, with “Serial concentrations of solutions of the test compounds (0.05-100 μM) were delivered to the corresponding wells.” left out

A431 = experiment: MTT cytotoxicity assay, A431; type: cell-based, human; conditions: A431, 72 hours
Method: as §2
(§4) The cells were plated (number of cells/well was different from cell line to cell depending on the dividing rate) in a 96-well microculture plate 24 hours prior to the delivery of the vanadium compounds. Serial concentrations of solutions of the test compounds (0.05-100 μM) were delivered to the corresponding wells. […] The absorbance of each well was read with a Titertek Multiskan (310C) spectrophotometer at 570 nm. […]

LS180 = experiment: MTT cytotoxicity assay, LS180; type: cell-based, human; conditions: LS180, 72 hours
Method: as §2, §4

SK-OV-3 = experiment: MTT cytotoxicity assay, SK-OV-3; type: cell-based, human; conditions: SK-OV-3, 72 hours
Method: as §2, §3

synoviocytes = experiment: synoviocyte proliferation, dye exclusion (Example 24); type: cell-based
Method: The effect of vanadium compounds on synoviocyte proliferation was investigated as follows. Synoviocytes were plated on six well plates and treated with orthovanadate or vanadyl sulphate and incubated for 24 hours. The cells were removed and the number of viable cells determined by the dye exclusion method.

carcinogenesis = conditions: dietary; cited from earlier work

Compound | stimulation of fos / c-fos expression (fos) | effect on cell toxicity, H2 O2 alone (cells) | killing of MDAY-D2 cells (MDAY-D2 cells) | animal deaths (MDAY-D2 tumor; groups of five, 10 mg/ml, 50 μl daily s.c.) | efficacy in reducing tumor growth (MDAY-D2 tumor; mouse, in vivo) | metastases in liver [1] | IC50 (P388 (WT)) [µM] | IC50 (P388 (ADR)) [µM] | IC50 (Lewis lung) [µM] | IC50 (MCF7 (WT)) [µM] | IC50 (MCF7 (ADR)) [µM] | IC50 (H460) [µM] | IC50 (K562) [µM] | IC50 (A431) [µM] | IC50 (LS180) [µM] | IC50 (SK-OV-3) [µM] | cytotoxicity to synoviocytes (synoviocytes) | Number of cells (synoviocytes; 25 μM, 24 hours (control 2.6)) | synoviocyte proliferation (synoviocytes; 24 hours) | chemically induced mammary carcinogenesis in rats (carcinogenesis)
OO [H2 O2, hydrogen peroxide] | stimulates | small effect |  |  |  |  |  |  |  |  |  |  |  |  |  |  |  |  |  | 
O=S(=O)([O-])[O-].[O]=[V+2] [vanadyl sulphate] |  |  | equally effective | One animal died | less effective | did not have detectable levels of metastases | 16.1 | 29.8 | 27.3 | 10.5 | 31.3 | 9.3 | > 100 | 29.1 | 31.9 | 1.9 | cytotoxic to the cells | 0.2 10^-5 | inhibited synoviocyte proliferation | inhibit
